This passage reports IC50 results from patent US8206756B2, “Herbal composition for inflammatory disorders” (Piramal Life Sciences Limited, priority 2005, dated 2012).

Assay [1] relates to ICAM-1. Description: Cell-ELISA for adhesion molecule expression in HUVECs: ICAM-1. As to conditions: Homo sapiens; TNF-α-induced surface expression, HUVEC. In kind it is cell-based. Here is the method:
(§1) The assay was designed on the basis of reference Transplantation, Vol 63(5), 759-764, 1997 with modifications.
(§2) Human Umbilical Vein Endothelial Cells (HUVECs) were obtained from Cascade Biologics and were maintained in M200 (Cascade Biologics, Portland, Oreg.) supplemented with low serum growth supplement (LSGS) at 37° C. in a 5% CO2 incubator. U937 cells (ATCC, Manassas, Va.) were grown in the RPMI 1640 medium supplemented with 10% FBS (Hyclone, Logan, Utah). Recombinant human TNFα, antibodies to VCAM-1, ICAM-1, E-Selectin were obtained from R&D Systems and LPS was obtained from Sigma (St. Louis, Mo.).
(§3) HUVECs were plated at […] in 96-well fibronectin-coated plates. The cells were stimulated with TNF-α (10 ng/ml) or LPS (1 μg/ml), 30 min after addition of test compound. After stimulation, cells (E-Selectin and ICAM-1) were fixed with paraformaldehyde in phosphate buffer saline (PBS). Non specific binding was blocked by 2% bovine serum albumin (BSA) in phosphate buffer saline (PBS) for 1 h, and the cells were incubated with primary antibody for 2 h. […] After washing, seven times, 3,3′5,5′-tetramethylbenzidine liquid substrate (TMB substrate) was added and the optical density of each well was determined at 450 nm using a microtitre plate reader (Spectramax, Molecular Devices, Calif.). […] Percent inhibition of the test sample compared to the control is evaluated. […]
For orientation: ELISA stands for enzyme-linked immunosorbent assay.

The test system of assay [2] is VCAM-1. Nature of the assay: Cell-ELISA for adhesion molecule expression in HUVECs: VCAM-1. It is filed as cell-based. The note with it: Homo sapiens; TNF-α-induced surface expression, HUVEC. The method, then:
as §1, §2, §3

pIC50: −log10 of the molar value.

As to `C=C1C(=O)OC2C3=C(C)CCCC3(C)CCC12O` (centres unmarked) [Compound 1, 3a-hydroxy-5a,9-dimethyl-3-methylene-3a,4,5,5a,6,7,8,9b-octahydro-3H-naphtho[1,2-b]furan-2-one], the values for the negative-log IC50 (pIC50) in assay [1] and in assay [2] were 6.28 and 6.40, respectively.
